Test results published in article PMC5458078, “Global mapping of CARM1 substrates defines enzyme specificity and substrate recognition” (Nature Communications, 2017).

How the values were obtained:
MCF7 cells = experiment: Quantitative nanoLC-MS/MS (TMT) of ADMA-containing peptides, CARM1 KO vs parental; assay type: cell-based, human; design: Fold change KO/WT: scale not given here
MCF7 CARM1 KO cells = experiment: Quantitative MS of ADMA-containing peptides in MCF7 CARM1 KO cells expressing CARM1 28-608 or CARM1 140-608, and in CARM1 KO; assay type: cell-based, human; conditions: mean of 3 replicates
[1] = MCF7, CARM1 knockout vs wild type, n = 3 each
[2] = MCF7, CARM1 KO vs WT, three biological replicates each
[3] = MCF7 CARM1 knockout vs wild type, 3 biological replicates each, values are on log2 scale
[4] = CARM1 KO vs wild type MCF7 cells, 3 biological replicates each
[5] = ADMA-containing peptide, MCF7, CARM1 knockout (KO1-3) vs wild type (WT1-3), TMT 6-plex experiment #1
[6] = ADMA-containing peptide, CARM1 knockout (KO) vs wild type (WT) MCF7 cells, 6-plex TMT experiment #1, three biological replicates each, sheet "MCF7"
[7] = MCF7, CARM1 KO (KO1-KO3) vs wild type (WT1-WT3)

AYSSFGGGrGSR
Fold change KO/WT (MCF7 cells; [1]): -0.1369

RPQLYGMGSNPHSQPQQSSPYPGGSYGPPGPQrYPIGIQGR
Fold change KO/WT (MCF7 cells; [2]): -1.511

DLVILLYETALLSSDFGLEGPQTHANr
Fold change KO/WT (MCF7 cells; [3]): 0.05306

GGFQNrGGGSGGGGNYrGGFNR
Fold change KO/WT (MCF7 cells; [3]): 0.1419

SPYTTTRYGSPINTFTVrPGTR
Fold change KO/WT (MCF7 cells; [2]): -3.3255

TGALPGPGPLSNPrLGGLPGPGPMSNPrAGGLLGAGPDPrGGGPMGPGSGPNLR
Fold change KO/WT (MCF7 cells; [2]): -2.513

VPASPQSQSSSQSPLTPrPLSAEAFCPSPVTPRFQSPDPYSRPPSRPQSR
Fold change KO/WT (MCF7 cells; [3]): -2.744

ICEGIrPQIMNGPLHPRPLVALLDGR
CARM1 140-608/WT (MCF7 CARM1 KO cells; ratio on log2 scale): -0.2372
KO/WT (MCF7 CARM1 KO cells; ratio on log2 scale): -0.9025

PVPPPPAPPPPPTFALANTEKPTLNKTEQAGrNALLSDISK
Fold change KO/WT (MCF7 cells; [4]): -1.049

GTPVrGAITR
Fold change KO/WT (MCF7 cells; [3]): -0.02001

SLGSVQAPSYGARPVSSAASVYAGAGGSGSrISVSR
Fold change KO/WT (MCF7 cells; [3]): -1.494

INPGLEYrQHLLLrGPPPGSANPPR
Fold change KO/WT (MCF7 cells; [3]): -0.6044

SNSGPYrGGYGGGGGYGGSSF
Fold change KO/WT (MCF7 cells; [1]): -0.1493

NrGFYPWGQYNrGGYGNYR
Fold change KO/WT (MCF7 cells; [5]): -0.1483

AFHDYSAAAAPSPVLGNIPPNDGMPGGPIPPGFFQPFMSPrYAGGPrPPIR
Fold change KO/WT (MCF7 cells; [5]): -2.246

AYGQQYWGQPGNrGGYR
Fold change KO/WT (MCF7 cells; [3]): -0.04736

LLGQRPGPYDrPIGGRGGYYGAGrGSMYDR
Fold change KO/WT (MCF7 cells; [3]): 0.09272

TEQAGrNALLSDISK
Fold change KO/WT (MCF7 cells; [4]): -1.119

CAGFLEPTWLAAPPRLArPPR
Fold change KO/WT (MCF7 cells; [1]): -1.124

AGPrLLLIPVQQGSPTLRPVSNTQLQGHrMVLQPVR
Fold change KO/WT (MCF7 cells; [6]): -0.6769

LPNRDFAFYNPrLQGK
Fold change KO/WT (MCF7 cells; [2]): -1.34

LISVQTMQrGNMNCGAFQAHQMR
Fold change KO/WT (MCF7 cells; [5]): -0.03531

TGFTNIPSrYGTNNR
Fold change KO/WT (MCF7 cells; [7]): -2.195

PABP1: a known CARM1 substrate
Decrease of ADMA site abundance on CARM1 loss (MCF7 cells; CARM1 KO vs parental MCF7 cells): slightly over twofold

QQQQQQQQQQQQLDLLFHQrIQISLWPR
Fold change KO/WT (MCF7 cells; [1]): -2.494

LTrGQLQHLGTR
Fold change KO/WT (MCF7 cells; [4]): 0.1695

TYSEVYPGQQYLQGGQYAPSTAQFAPSPGQPPAPSPSYPGHrLPLQQGMTQSLSVPGPTGLHYKPTR
Fold change KO/WT (MCF7 cells; [4]): -2.904

TGALPGPGPLSNPrLGGLPGPGPMSNPrAGGLLGAGPDPR
Fold change KO/WT (MCF7 cells; [2]): -2.931

MGTPVPrPPQDMGQIGVRTPLGPR
Fold change KO/WT (MCF7 cells; [7]): -2.466

SYrGGGGGGGGWR
Fold change KO/WT (MCF7 cells; [5]): -0.08168

GPQWKRGArGGNLVTGTQr
Fold change KO/WT (MCF7 cells; [3]): -0.2728

LSLPPIHTLYQPrFGNSQSFTSK
Fold change KO/WT (MCF7 cells; [5]): -2.191

SAGGRPGSGPQLGTGrGTLR
Fold change KO/WT (MCF7 cells; [1]): -0.3785

AGPrLLLIPVQQGSPTLrPVSNTQLQGHrMVLQPVR
Fold change KO/WT (MCF7 cells; [6]): -0.8102

QGSIGLYTQNQPLPAGGPRVDPYrPVRLPMQK
Fold change KO/WT (MCF7 cells; [6]): -1.665

MGTPVPRPPQDMGQIGVrTPLGPrVAAPVGPVGPTPTVLPMGAPVPrPRGPPPPPGDENR
Fold change KO/WT (MCF7 cells; [7]): -1.953

LQHMQQQQPPPrLINFQNHSPKPNGPVLPPHPQQLrYPPNQNIPR
Fold change KO/WT (MCF7 cells; [5]): -0.9847

LDrICEGIRPQIMNGPLHPRPLVALLDGR
Fold change KO/WT (MCF7 cells; [1]): -0.535

MGTPVPRPPQDMGQIGVRTPLGPrVAAPVGPVGPTPTVLPMGAPVPrPrGPPPPPGDENR
Fold change KO/WT (MCF7 cells; [7]): -3.578

AAGMTPLYAGQrLPQHGYPGPPQAQPLPrQGVK
Fold change KO/WT (MCF7 cells; [4]): -1.882

GrGTLTrGAFVGATAAPGYIAPGYGTPYGYSTAAPAYGLPKR
Fold change KO/WT (MCF7 cells; [5]): -0.6705

SYSrGGGDQGYGSGR
Fold change KO/WT (MCF7 cells; [7]): -0.3099

SPYTTTrYGSPINTFTVRPGTR
CARM1 140-608/WT (MCF7 CARM1 KO cells; CARM1 140-608 vs WT, log2): -0.1037
KO/WT (MCF7 CARM1 KO cells; KO vs WT, log2): -2.259

GGrFSAQGMGTFNPADYAEPANTDDNYGNSSGNTWNNTGHFEPDDGTSAWR
Fold change KO/WT (MCF7 cells; [4]): -0.4035

MGTPVPRPPQDMGQIGVrTPLGPRVAAPVGPVGPTPTVLPMGAPVPrPR
Fold change KO/WT (MCF7 cells; [7]): -3.4667

LPPDRYCLTAPNYrLK
Fold change KO/WT (MCF7 cells; [5]): -0.4021
